# Data taken from patent US10683311B2 (priority 2015, dated 2020).
# Assay: log P by HPLC on reversed-phase column (C18), EEC Directive 79/831 Annex V.A8
# Format: physicochemical
# Details: Method A: 40° C., 0.1% aqueous formic acid and acetonitrile
# Procedure: In table 1, the log P values were determined in accordance with EEC Directive 79/831 Annex V.A8 by HPLC (High Performance Liquid Chromatography) on a reversed-phase column (C18), using the methods described below:
# Method A: temperature: 40° C.; mobile phases: 0.1% aqueous formic acid and acetonitrile; linear gradient from 10% acetonitrile to 95% acetonitrile;
# Method B: temperature: 40° C.; mobile phases: 0.001 molar ammonium acetate solution in water and acetonitrile; linear gradient from 10% acetonitrile to 95% acetonitrile.
# Calibration was carried out using unbranched alkan-2-ones (comprising 3 to 16 carbon atoms) with known log P values (determination of the log P values by the retention times using linear interpolation between two successive alkanones). lambda-max-values were determined using UV-spectra from 200 nm to 400 nm and the peak values of the chromatographic signals.
row,SMILES,logP
1,"C[Si]1(c2ccccc2)c2c(F)cccc2Oc2c(Cl)nc3ccccc3c21 (stereo not drawn) [6-chloro-11-fluoro-12-methyl-12-phenyl-12H-[1,4]benz-oxasilino[2,3-c]quinoline]",5.94
2,C[Si](C)(O)c1ccccc1Oc1cnc2ccccc2c1 [I.002],2.82
3,C[Si](C)(O)c1c(F)cccc1Oc1cnc2ccccc2c1 [I.003],2.90
4,CC[Si](C)(C)c1c(F)cccc1Oc1cnc2ccccc2c1 [I.005],5.47
5,C=C[Si](C)(C)c1c(F)cccc1Oc1cnc2ccccc2c1 [I.006],5.24
6,C[Si](C)(CCl)c1c(F)cccc1Oc1cnc2ccccc2c1 [I.007],5.00
7,C[Si](C)(C)c1ccccc1Nc1cnc2ccccc2c1 [I.011],3.46
8,C[Si](C)(C)c1ccccc1Cc1cnc2ccccc2c1 [I.012],4.06
9,C[Si](C)(c1ccccc1)c1ccccc1Cc1cnc2ccccc2c1 [I.013],4.20
10,C[Si](C)(c1cccs1)c1ccccc1Cc1cnc2ccccc2c1 [I.015],4.04
11,C[Si](C)(c1ccc(Oc2ccccc2)cc1)c1ccccc1Cc1cnc2ccccc2c1 [I.016],5.62
12,C[Si](C)(C)c1c(F)cccc1C(=O)c1cnc2ccccc2c1 [I.017],4.49
13,C[Si](C)(O)c1cc(F)ccc1Oc1cnc2c(Cl)cccc2c1 [I.018],3.50
14,C[Si](C)(C)c1ccccc1Oc1cnc2c(F)c(F)ccc2c1 [I.020],5.39
15,C[Si](C)(C)c1c(F)cccc1Oc1cnc2c(F)c(F)ccc2c1 [I.021],5.32
16,C[Si](C)(O)c1c(F)cccc1Oc1cnc2c(F)c(F)ccc2c1 [I.022],2.35
17,C[Si](C)(O)c1ccccc1Oc1cnc2c(F)c(F)ccc2c1 [I.023],3.27
18,Cc1nc2c(F)c(F)ccc2cc1Oc1cccc(F)c1[Si](C)(C)O [I.025],3.55
19,Cc1nc2c(F)c(F)ccc2cc1Oc1cccc(F)c1[Si](C)(C)c1ccccc1 [I.028],6.01
20,Cc1nc2c(F)c(F)ccc2cc1Oc1cc(N)ccc1[Si](C)(C)C [I.029],4.59
21,Cc1nc2c(F)c(F)ccc2cc1Oc1cccc(F)c1[Si](C)(C)c1cccs1 [I.030],5.65
22,Cc1nc2c(F)c(F)ccc2cc1Oc1cc([N+](=O)[O-])ccc1[Si](C)(C)C [I.031],5.34

row,SMILES,logP
1,COc1cccc(Oc2cc3ccc(F)c(F)c3nc2C)c1[Si](C)(C)O [I.033],3.69
2,Cc1nc2c(F)c(F)ccc2cc1Oc1cccc(Cl)c1[Si](C)(C)O [I.034],3.83
3,Cc1nc2c(F)c(F)ccc2cc1Oc1cc(F)ccc1[Si](C)(C)O [I.035],3.55
4,Cc1nc2c(F)c(F)ccc2cc1Oc1cccc(OC(F)(F)F)c1[Si](C)(C)O [I.036],4.20
5,Cc1nc2c(F)c(F)ccc2cc1Oc1ccc(F)cc1[Si](C)(C)O [I.037],3.55
6,COc1cccc(Oc2cc3ccc(F)c(F)c3nc2C)c1[Si](C)(C)C [I.038],5.85
7,CC[Si](C)(C)c1c(C#N)cccc1Oc1cc2ccc(F)c(F)c2nc1C [I.039],5.22
8,Cc1nc2c(F)c(F)ccc2cc1Cc1ccccc1[Si](C)(C)C [I.040],5.54
9,CC[Si](C)(C)c1ccccc1Oc1cnc2c(c1)CCCC2 [I.041],3.68
10,Cc1c(Oc2cccc(F)c2[Si](C)(C)C)cnc2ccccc12 [I.042],5.62
11,CC[Si](C)(C)c1c(C#N)cccc1Oc1c(C)nc2c(F)c(F)ccc2c1[Si](C)(C)CC [I.043],7.36
12,C=Cc1nc2ccccc2cc1Oc1cccc(F)c1[Si](C)(C)C [I.044],6.30
13,C[Si](C)(C)c1c(F)cccc1Oc1cc2ccccc2nc1-c1ccccc1 [I.045],6.40
14,Cc1nc2ccccc2cc1Oc1cccc(F)c1[Si](C)(C)C [I.046],5.08
15,Cc1nc2ccccc2cc1Oc1ccccc1[Si](C)(C)O [I.048],2.16
16,Cc1nc2ccccc2cc1Oc1cccc(F)c1[Si](C)(C)O [I.049],2.41
17,Cc1nc2ccccc2cc1Oc1cccc(OC(F)(F)F)c1[Si](C)(C)O [I.050],3.35
18,Cc1nc2ccccc2cc1Oc1cccc(Cl)c1[Si](C)(C)O [I.051],2.80
19,CC[Si](C)(C)c1c(F)cccc1Oc1cc2ccccc2nc1C [I.052],5.62
20,Cc1nc2ccccc2cc1Oc1cccc(F)c1[SiH](C)C [I.053],4.56
21,Cc1nc2ccccc2cc1Nc1ccccc1[Si](C)(C)C [I.054],2.46
22,Cc1nc2ccccc2cc1Nc1ccc(F)cc1[Si](C)(C)C [I.055],2.63

row,SMILES,logP
1,CCN(c1ccccc1[Si](C)(C)C)c1cc2ccccc2nc1C [I.056],3.16
2,CC[Si](C)(C)c1c(F)cccc1Oc1cc2ccccc2[n+]([O-])c1C [I.057],4.54
3,Cc1c(Nc2ccccc2[Si](C)(C)C)cc2ccccc2[n+]1[O-] [I.058],3.62
4,C[Si](C)(C)c1c(F)cccc1Oc1cc2ccccc2nc1O [I.059],3.85
5,CCOc1nc2ccccc2cc1Oc1cccc(F)c1[Si](C)(C)C [I.060],6.79
6,C[Si](C)(C)c1c(F)cccc1Oc1cc2ccccc2nc1C1CC1 [I.061],6.90
7,C[Si](C)(C)c1c(F)cccc1Oc1cc2ccccc2nc1Cl [I.063],5.90
8,CSc1nc2ccccc2cc1Oc1cccc(F)c1[Si](C)(C)C [I.064],6.79
9,C[Si](C)(C)c1c(F)cccc1Oc1cc2ccccc2nc1C(F)F [I.065],5.45
10,C[Si](C)(C)c1c(F)cccc1Nc1cc2ccccc2nc1C(F)F [I.066],5.68
11,C[Si](C)(C)c1c(F)cccc1Oc1cc2ccccc2nc1-c1ccsc1 [I.067],6.66
12,C[Si](C)(C)c1ccccc1Oc1cnc2ccccc2n1 [I.068],5.05
13,C[Si](C)(C)c1c(F)cccc1Oc1cnc2ccccc2n1 [I.069],5.22
14,C[Si](C)(O)c1ccccc1Oc1cnc2ccccc2n1 [I.070],2.86
15,C[Si](C)(O)c1c(F)cccc1Oc1cnc2ccccc2n1 [I.071],3.01
16,CC(C)(C)[Si](C)(C)c1ccccc1Oc1cnc2ccccc2n1 [I.072],6.30
17,CC(C)C[Si](C)(C)c1ccccc1Oc1cnc2ccccc2n1 [I.073],6.33
18,CC[Si](CC)(CC)c1ccccc1Oc1cnc2ccccc2n1 [I.074],6.43
19,CC(C)[Si](C)(C)c1ccccc1Oc1cnc2ccccc2n1 [I.075],5.91
20,CC[Si](C)(C)c1ccccc1Oc1cnc2ccccc2n1 [I.076],5.48
21,CC[Si](C)(C)c1ccccc1Oc1cnc2c(F)c(F)ccc2n1 [I.077],5.62
22,C[Si](C)(C)c1c(F)cccc1Oc1cnc2c(F)c(F)ccc2n1 [I.078],5.20

row,SMILES,logP
1,C[Si](C)(C)c1ccccc1Oc1cnc2c(F)c(F)ccc2n1 [I.079],5.28
2,C[Si](C)(c1ccccc1Oc1cnc2c(F)c(F)ccc2n1)C1CCCCC1 [I.080],6.94
3,C[Si](C)(O)c1ccccc1Oc1cnc2c(F)c(F)ccc2n1 [I.081],3.23
4,C[Si](C)(O)c1c(F)cccc1Oc1cnc2c(F)c(F)ccc2n1 [I.082],3.33
5,C[Si](C)(F)c1c(F)cccc1Oc1cnc2c(F)c(F)ccc2n1 [I.083],5.01
6,C[Si](C)(C)c1ccccc1Nc1cnc2c(F)c(F)ccc2n1 [I.084],4.49
7,Cc1nc2c(F)c(F)ccc2nc1Oc1cccc(F)c1[Si](C)(C)O [I.085],3.67
8,Cc1nc2c(F)c(F)ccc2nc1Oc1ccccc1[Si](C)(C)C [I.086],5.46
9,Cc1nc2c(F)c(F)ccc2nc1Oc1ccccc1[Si](C)(C)O [I.087],3.35
10,Cc1nc2c(F)c(F)ccc2nc1Oc1cccc(F)c1[Si](C)(C)C [I.088],5.65
11,Cc1nc2c(F)c(F)ccc2nc1Oc1c(F)cccc1[Si](C)(C)O [I.089],3.62
12,Cc1nc2c(F)c(F)ccc2nc1Oc1cccc(Cl)c1[Si](C)(C)O [I.090],3.94
13,C=C[Si](C)(C)c1c(F)cccc1Oc1nc2ccc(F)c(F)c2nc1C [I.091],5.62
14,Cc1nc2c(F)c(F)ccc2nc1Oc1cccc(F)c1[Si](C)(C)F [I.092],4.75
15,Cc1nc2c(F)c(F)ccc2nc1Oc1cc(C#N)ccc1[Si](C)(C)O [I.093],3.39
16,COc1cccc(Oc2nc3ccc(F)c(F)c3nc2C)c1[Si](C)(C)O [I.094],3.60
17,Cc1nc2c(F)c(F)ccc2nc1Oc1cccc(OC(F)(F)F)c1[Si](C)(C)O [I.095],4.34
18,Cc1ccc([Si](C)(C)O)c(Oc2nc3ccc(F)c(F)c3nc2C)c1 [I.096],3.76
19,Cc1ccc([Si](C)(C)O)c(Oc2nc3ccc(F)c(F)c3nc2C)c1 [I.097],3.76
20,Cc1nc2c(F)c(F)ccc2nc1Oc1ccc(F)cc1[Si](C)(C)O [I.098],3.63
21,Cc1ccc(Oc2nc3ccc(F)c(F)c3nc2C)c([Si](C)(C)O)c1 [I.099],3.85

# Same assay, conditions: Method B: 40° C., 0.001 molar ammonium acetate solution in water and acetonitrile
row,SMILES,logP
1,C[Si](C)(O)c1ccccc1Nc1cnc2ccccc2c1 [I.009],3.20

# Same assay, conditions: reversed-phase HPLC column (C18), Method A: 40° C., 0.1% aqueous formic acid and acetonitrile
row,SMILES,chromatographic logP
1,C[SiH](c1ccccc1)c1c(Oc2cccc(F)c2)c(Cl)nc2ccccc12 (stereo not drawn) [2-chloro-3-(3-fluorophenoxy)-4-[methyl(phenyl)silyl]quinoline],5.9
2,"C[Si](C)(c1ccc(Cl)cc1)c1ccccc1Cc1cnc2ccccc2c1 [I.014, 3-{2-[(4-chlorophenyl)(dimethyl)silyl]benzyl}quinoline]",4.74
